The structures appear in SMILES notation.

Consider one compound from patent US11203777B2, “Method of preparing sterilized compositions for stabilization of extracellular nucleic acids” (Qiagen GmbH, priority 2015, dated 2021).

Data set [1] in a line: HPLC quantification of caspase inhibitor in stabilization reagent before and after gamma irradiation. It counts as physicochemical. As to the method:
Caspase inhibitor (Q-VD-OPh) was dissolved and diluted in DMSO for generation of a standard curve. Concentrations of 7.5, 15, 30 and 60 μg/ml were used to generate the standard curve.
Stabilization reagents containing a mixture of caspase inhibitor, EDTA, DMPA and PEG were tested before and after gamma irradiation. Unique peaks for caspase inhibitor were identified and compared to the standard curve for total quantification of caspase inhibitor. The concentration of caspase inhibitor was determined before and after irradiation, and these concentrations were compared for relative quantification.
For the production of PAXgene Blood ccfDNA Alpha blood collection tubes (Alpha BCT), BD standard tubes for 10 ml blood draw were filled with 1.3-1.7 ml ccfDNA stabilization reagent. The exemplary stabilization reagents tested comprised a mixture of caspase inhibitor (Q-VD-OPh), K2EDTA, DMPA, PEG300 and PEG10000, according to PCT/EP2015/055699. A vacuum was applied to the tubes to allow for a 10.25 ml blood draw. Tubes were sterilized by gamma irradiation using Cobalt-60 as energetic gamma ray source in a range of 5 to 35 kGy. […]
Stabilization reagents were produced with or without the addition of radical scavengers and sterilized in bulk by gamma irradiation. The caspase inhibitor concentration was measured by HPLC before and after irradiation to determine the effect of scavenger addition on caspase inhibitor degradation during sterilization by gamma irradiation.
Stabilization reagents according to PCT/EP2015/055699 were produced with or without the addition of radical scavengers in different concentrations and with different concentrations of caspase inhibitor. PAXgene Blood ccfDNA Alpha tubes were produced by filling 1.7 ml of the respective stabilization reagent into a standard Vacutainer. Tubes were sterilized by gamma irradiation with different energy levels. The caspase inhibitor concentration was measured by HPLC before and after irradiation (see Table 7 below).

For data set [2], the system named is ccfDNA level in whole blood (66 bp and 500 bp fragments of the 18S rDNA gene). Kind of data set: ccfDNA stabilization in stored whole blood, real time PCR of 18S rDNA fragments in plasma.
Procedure: Blood was drawn into Alpha BCT for stabilization of the ccfDNA level. 10 ml spray dried EDTA tubes (BD) with 1.8 mg K2EDTA per ml of whole blood served as non-stabilized negative control. Blood and reagents were mixed by inverting the tube ten times. Stabilized and non-stabilized blood samples were stored at room temperature standing in an upright position.
Whole blood samples were centrifuged at ambient temperature for 15 min at 1.900×g. The clear plasma fraction was transferred into a fresh centrifuge tube. In a second round, plasma samples were centrifuged for 10 min at 16.000×g in case of non-stabilized EDTA-blood or for 10 min at 1.900×g in case of stabilized Alpha BCT blood. The supernatant was transferred into a new tube and used either directly for the purification of ccfDNA or stored at −20° C. until use.
DNA from plasma was isolated with the QIAamp circulating nucleic acid kit (QIAGEN GmbH), using the protocol for purification of circulating nucleic acids from 1 ml, 2 ml, or 3 ml serum or plasma. If not stated otherwise, 2 ml of plasma was mixed with proteinase K and lysis buffer ACL, incubated for 30 min at 60° C., mixed with buffer ACB, bound on QIAamp Mini columns with the use of a QIAvac 24 Plus vacuum manifold, washed and eluted with 60 μl elution buffer AVE, according to the manufactures recommendations.
ccfDNA from 2 ml plasma was isolated with a preliminary version of the QIAsymphony Circulating DNA protocol and kit (QIAGEN). If not stated otherwise, the QIAsymphony robot mixed 2 ml of plasma with proteinase K, binding buffer and magnetic beads. Beads with bound DNA were washed three times and DNA was eluted using 60 μl elution buffer.
To measure the amount of ccfDNA, a real time PCR assay on Abi Prism HT7900 (Life Technologies) was performed with 3 μl of eluate. In a 20 μl assay volume using QuantiTect Multiplex PCR Kit reagents (QIAGEN GmbH), two fragments of the human 18S rDNA gene were amplified in a multiplex PCR. Total quantification was achieved by comparison with a standard curve generated with human genomic DNA diluted from 3000 to 0.3 genome equivalents (1 genome equivalent equates to around 6.6 μg of human genomic DNA).
Quantification of the 66 bp fragment was used to reflect the total amount of 18S rDNA copies in the plasma. Quantification of the 500 bp was used to determine the amount of 18S rDNA copies which derived from apoptotic or mechanically lysed leukocytes from whole blood. […] The increase of copy numbers from the 500 bp fragment between day 0 and 3 or 6 days storage, was used as a measurement of stability efficiency.
PAXgene Blood ccfDNA Alpha tubes were produced and sterilized by gamma irradiation with different energy levels. Samples of 10 ml whole blood from eight donors were collected in 10 ml spray dry K2EDTA tubes (non-stabilized controls) and in PAXgene Blood ccfDNA Alpha tubes. Plasma was generated from 5 ml of stabilized or non-stabilized blood samples directly after blood draw. Residual blood was stored for additional 6 days at room temperature before plasma generation. ccfDNA was purified manually from 2 ml plasma, copy numbers of 18S rDNA gene were determined in triplicates by real time PCR.
Samples of 10 ml whole blood from eight donors were collected in 10 ml spray dry K2EDTA tubes. Directly after blood draw, non-stabilized blood samples were stabilized by addition of 1.7 ml of a ccfDNA stabilization reagent according to PCT/EP2015/055699 with or without addition of the different compounds tested for their impact on extracellular nucleic acid stabilization.
Plasma was generated from 5 ml of stabilized blood samples directly after the blood draw (day 0).
The mark [3] stands for this setting: scavenger 0.5-10 mg/ml, 0.05-1% (w/v).

`CC(=O)N[C@@H](CS)C(=O)O` [N-acetyl-L-cysteine]: the “[Casp] (Pre-Irr)” value in data set [1] (scavenger 2 mg/ml-12 mM, 50 ml bulk) came to 16.468 µg/mL. Also, the “[Casp] (Post-Irr)” value in data set [1] (scavenger 2 mg/ml-12 mM, 50 ml bulk, 25 kGy) is 14.1849 µg/mL. Besides, the “Protection against gamma irradiation” value in data set [1] (setting [3]) is recorded as “high”. In addition, the “protection of caspase inhibitors from gamma-irradiation (copy numbers of the 500 bp fragment)” value in data set [2] (0.5 mg/ml in reagent, 30 kGy, 6 donors, 5 days at room temperature, FIG. 10) is “efficiently protected the caspase inhibitors Boc-D-(OMe)-FMK and Z-VAD (OMe)-FMK from gamma-irradiation”. In data set [2] (setting [3]), the “Effect on ccfDNA stability” value is reported as “neutral”.
